Data from ChEMBL document CHEMBL2311538, “Discovery of a class of novel tankyrase inhibitors that bind to both the nicotinamide pocket and the induced pocket” (J Med Chem, 2013).

Experiments:
[1] = molecular target: T1, Poly [ADP-ribose] polymerase tankyrase-1 (Homo sapiens, UniProt O95271)
T1 sequence (O95271 whole entry): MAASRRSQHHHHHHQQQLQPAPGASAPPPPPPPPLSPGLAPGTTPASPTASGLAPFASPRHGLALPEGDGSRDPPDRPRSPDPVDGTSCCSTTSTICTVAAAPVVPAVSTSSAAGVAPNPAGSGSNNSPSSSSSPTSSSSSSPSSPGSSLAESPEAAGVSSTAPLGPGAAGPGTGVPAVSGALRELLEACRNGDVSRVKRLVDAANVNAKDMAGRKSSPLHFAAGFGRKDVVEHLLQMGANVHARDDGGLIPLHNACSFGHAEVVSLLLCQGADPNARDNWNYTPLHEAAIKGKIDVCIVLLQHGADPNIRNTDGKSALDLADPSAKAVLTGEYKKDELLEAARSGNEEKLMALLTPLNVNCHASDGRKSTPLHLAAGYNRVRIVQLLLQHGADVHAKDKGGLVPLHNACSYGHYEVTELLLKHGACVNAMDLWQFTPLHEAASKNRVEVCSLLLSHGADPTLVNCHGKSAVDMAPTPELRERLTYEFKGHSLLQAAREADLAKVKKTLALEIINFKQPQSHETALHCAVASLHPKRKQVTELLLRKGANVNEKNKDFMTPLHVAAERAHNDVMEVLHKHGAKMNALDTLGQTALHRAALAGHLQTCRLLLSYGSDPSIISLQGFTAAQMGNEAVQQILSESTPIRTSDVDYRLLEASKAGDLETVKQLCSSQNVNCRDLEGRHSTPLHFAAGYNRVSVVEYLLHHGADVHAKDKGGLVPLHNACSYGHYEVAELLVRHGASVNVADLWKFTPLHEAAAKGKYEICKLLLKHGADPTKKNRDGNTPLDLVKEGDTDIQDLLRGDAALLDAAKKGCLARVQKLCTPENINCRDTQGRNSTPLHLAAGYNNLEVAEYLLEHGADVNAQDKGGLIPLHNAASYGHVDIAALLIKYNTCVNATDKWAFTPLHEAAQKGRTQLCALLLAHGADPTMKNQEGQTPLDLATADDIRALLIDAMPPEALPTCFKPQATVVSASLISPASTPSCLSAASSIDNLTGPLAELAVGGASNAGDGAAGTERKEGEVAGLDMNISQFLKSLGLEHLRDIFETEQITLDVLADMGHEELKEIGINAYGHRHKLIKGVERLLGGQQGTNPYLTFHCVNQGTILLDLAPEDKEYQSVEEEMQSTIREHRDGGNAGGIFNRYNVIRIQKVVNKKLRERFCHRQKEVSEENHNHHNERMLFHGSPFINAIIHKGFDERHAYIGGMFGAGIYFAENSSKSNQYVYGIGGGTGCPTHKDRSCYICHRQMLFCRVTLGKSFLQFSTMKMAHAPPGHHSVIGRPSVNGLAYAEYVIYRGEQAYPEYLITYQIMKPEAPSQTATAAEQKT

[2] = molecular target: Poly [ADP-ribose] polymerase 2 (Homo sapiens, UniProt Q9UGN5); test: Inhibition of PARP2 (unknown origin)
Chain of Poly [ADP-ribose] polymerase 2 (Q9UGN5 whole entry, the tested form may be a part): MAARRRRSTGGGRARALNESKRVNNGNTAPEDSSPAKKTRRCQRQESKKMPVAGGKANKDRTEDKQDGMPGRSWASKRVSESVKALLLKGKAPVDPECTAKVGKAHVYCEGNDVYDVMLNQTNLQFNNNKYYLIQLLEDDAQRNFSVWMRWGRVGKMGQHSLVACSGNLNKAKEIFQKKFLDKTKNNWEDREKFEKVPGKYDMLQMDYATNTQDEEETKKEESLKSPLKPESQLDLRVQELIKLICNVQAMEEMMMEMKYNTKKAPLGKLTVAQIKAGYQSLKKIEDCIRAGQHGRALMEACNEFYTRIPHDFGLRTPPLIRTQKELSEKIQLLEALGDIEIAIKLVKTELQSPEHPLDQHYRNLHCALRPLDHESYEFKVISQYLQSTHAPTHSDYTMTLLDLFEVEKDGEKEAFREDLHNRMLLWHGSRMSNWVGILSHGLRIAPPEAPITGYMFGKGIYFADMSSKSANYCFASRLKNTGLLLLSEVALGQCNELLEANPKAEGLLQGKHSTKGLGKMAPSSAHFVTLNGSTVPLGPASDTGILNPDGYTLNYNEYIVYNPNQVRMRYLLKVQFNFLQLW

[3] = molecular target: T2, Poly [ADP-ribose] polymerase tankyrase-2 (Homo sapiens, UniProt Q9H2K2); test: Inhibition of N-terminal His6-tagged human TNKS2 (946 to 1162 amino acid residues) after 60 mins by autoparsylation assay
T2 sequence (Q9H2K2 whole entry): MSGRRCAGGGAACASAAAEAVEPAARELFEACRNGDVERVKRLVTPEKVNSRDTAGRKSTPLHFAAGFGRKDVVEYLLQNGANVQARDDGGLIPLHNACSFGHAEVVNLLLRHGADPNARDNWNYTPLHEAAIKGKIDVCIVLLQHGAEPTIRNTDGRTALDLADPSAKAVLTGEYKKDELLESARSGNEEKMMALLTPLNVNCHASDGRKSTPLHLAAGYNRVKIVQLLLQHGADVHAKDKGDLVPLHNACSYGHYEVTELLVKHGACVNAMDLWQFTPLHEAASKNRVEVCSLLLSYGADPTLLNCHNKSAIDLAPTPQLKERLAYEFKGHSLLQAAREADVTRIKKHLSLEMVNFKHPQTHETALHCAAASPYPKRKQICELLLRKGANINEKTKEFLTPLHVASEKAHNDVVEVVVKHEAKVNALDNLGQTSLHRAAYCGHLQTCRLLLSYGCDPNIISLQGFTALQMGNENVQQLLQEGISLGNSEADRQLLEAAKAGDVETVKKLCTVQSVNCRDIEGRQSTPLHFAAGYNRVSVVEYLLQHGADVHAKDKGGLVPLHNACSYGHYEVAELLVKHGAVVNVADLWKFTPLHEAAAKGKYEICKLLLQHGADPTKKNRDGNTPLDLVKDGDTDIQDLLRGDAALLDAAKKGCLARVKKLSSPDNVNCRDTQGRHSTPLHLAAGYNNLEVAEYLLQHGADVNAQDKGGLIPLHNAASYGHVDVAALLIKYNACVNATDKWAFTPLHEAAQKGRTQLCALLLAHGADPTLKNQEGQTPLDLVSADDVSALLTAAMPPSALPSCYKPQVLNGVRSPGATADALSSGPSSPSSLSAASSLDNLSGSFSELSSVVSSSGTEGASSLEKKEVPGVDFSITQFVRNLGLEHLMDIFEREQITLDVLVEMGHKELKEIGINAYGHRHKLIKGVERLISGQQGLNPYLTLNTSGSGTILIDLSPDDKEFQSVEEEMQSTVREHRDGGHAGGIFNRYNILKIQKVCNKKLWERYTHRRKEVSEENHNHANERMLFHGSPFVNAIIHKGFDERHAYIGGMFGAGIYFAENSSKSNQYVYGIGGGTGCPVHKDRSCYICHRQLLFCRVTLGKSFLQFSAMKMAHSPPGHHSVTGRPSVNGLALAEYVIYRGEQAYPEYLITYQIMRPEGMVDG

Tankyrase 1/2 = molecular target: T3, Tankyrase 1/2 (Homo sapiens, UniProt Q9H2K2+O95271); settings: hek293
T3 sequence (Q9H2K2 whole entry): T2 sequence (Q9H2K2 whole entry)
T3 sequence (O95271 whole entry): T1 sequence (O95271 whole entry)

IC50 [1] | IC50 [2] | IC50 [3] | IC50 (Tankyrase 1/2) | Compound
8 nM | 931 nM |  |  | COc1ccccc1NC(=O)c1ccc(NC(=O)CCc2nc3ccccc3c(=O)[nH]2)cc1
192 nM |  | 36 nM | 163000 nM | Cc1ccnc2c(NC(=O)c3ccc(N4C(=O)[C@@H]5[C@H](C4=O)[C@@H]4C=C[C@H]5C4)cc3)cccc12
